The record followed here is paper PMC2761383, “Structural and functional characteristics of xenavidin, the first frog avidin from Xenopus tropicalis” (BMC Structural Biology, 2009).

A short description of data set [1]: Fluorescence spectroscopy dissociation analysis of fluorescent Bf560-biotin. It is filed as binding. On the procedure:
The Quanta Master™ spectrofluorometer (Photon Technology International Inc., Lawrenceville, NJ) with a PTI Fluorescence Master System and the software Felix 32 was used to measure the biotin-binding properties of avidin, xenavidin and streptavidin. The analyses were done in a 50 mM sodium phosphate buffer (pH 7.0) containing 650 mM NaCl at two different temperatures (25 ± 1°C and 50 ± 1°C) by measuring the reversing of quenching of the biotin-coupled fluorescent probe ArcDia™ Bf560 (ArcDia Ltd., Turku, Finland) due to competition with free biotin (100-fold molar excess) as previously described. The spectrum of Bf560-biotin in the presence and absence of avidin is shown in [Additional file 4].

Data set [2] is described as follows: Optical biosensor analysis (Biacore X) of 2-iminobiotin binding. The text has this: The Biacore X optical biosensor instrument was used in the analysis, where the CM5 sensor chip was functionalized with 2-iminobiotin. The functionalization of the chip was done in three phases: First, the carboxymethyl dextrane was activated using a mixture containing 0.2 M EDC (1-ethyl-3-(3-dimethylaminopropyl) carbodiimide hydrochloride) and 0.05 M NHS (N-hydroxysuccinimide) in water. Second, in order to introduce amino groups to the surface, 1 M ethylenediamine (Fluka 03550) in water was applied. Third, a mixture of EDC (0.2 M) and 2-iminobiotin (10 mM) was applied on the surface in 25 mM Na-phosphate pH 6.5. The amount of 2-iminobiotin attached on the surface was 81 response units.
Xenavidin was injected onto the sensor chip in a 50 mM sodium carbonate buffer (pH 11.0) containing 1 M NaCl at 25°C and using a flow rate of 50 μl/min. […] The surface was regenerated between measurement cycles by injecting 20 μl of 0.5 M acetic acid followed by washing with the measurement buffer.
BIAevaluation software v. 4.1 was used for data analysis, and a global fitting method was used to analyze the data set. A period of 20 seconds from the beginning of each injection was included in the association phase fit and the dissociation rate analysis was performed for a 60-second period starting immediately after the end of the injection.

In data set [3] the test system is proteinase K. The data set can be described thus: Limited proteolysis with proteinase K. On the procedure:
The stability of xenavidin against the proteinase K enzyme, which is known to cleave the L3,4-loop of avidin [41], was tested. The assay was performed in the presence or absence of biotin as previously described by Laitinen et al.. Protein samples were taken before the enzyme treatment and after adding enzyme at time points 30 min, 1 h, 2 h, 3 h, 18 h and 22 h (data not shown), and the samples were analyzed using SDS-PAGE analysis and Coomassie Brilliant Blue (Serva, Heidelberg, Germany) staining.

The mark [4] stands for this setting: competition with free biotin (100-fold molar excess), pH 7.0.
Setting [5] is: 2-iminobiotin chip, pH 11.0, 1 M NaCl, 25°C.

Usually Kd stands for the equilibrium constant for the complex coming apart. Higher therefore signals lower affinity.

In the case of “Avidin: chicken avidin, biotin-binding protein; control sample expressed in E. coli”, the “Dissociation rate constant at 25°C” value in data set [1] (25°C, competition with free biotin (100-fold molar excess), pH 7.0) is 2.3 s^-1 (× 10^-5). The “Dissociation rate constant at 50°C” value in data set [1] (setting [4]) is 32.6 s^-1 (× 10^-5). Also, the “Release after 1 h at 50°C” value in data set [1] is 76.5%. Besides, in data set [2] (setting [5]), the Kd is 102 nM, the kass was 94000 M⁻¹ s⁻¹ and the kdiss came out at 0.0096 s⁻¹. This substance also showed a Kd in data set [2] (2-iminobiotin functionalized chip, rounded value) of 100 nM. Further, the “stability against proteinase K” value in data set [3] (absence of biotin) was “fragments of 10 kDa and below”. Moreover, the “stability against proteinase K” value in data set [3] (presence of biotin) is recorded as “protected avidin from proteolytic cleavage”.

On to “Streptavidin: bacterial biotin-binding protein from Streptomyces avidinii (Biomol GmbH); control sample”, for which, in data set [1] (setting [4]), the “Dissociation rate constant at 50°C” value is on record as 0.7 s^-1 (× 10^-5). Moreover, the “Release after 1 h at 50°C” value in data set [1] was 5.1%. In data set [2] (setting [5]), this substance came in with a Kd of 85 nM, a kass of 200000 M⁻¹ s⁻¹ and a kdiss of 0.017 s⁻¹.
